Measured values as given in ChEMBL document CHEMBL1201862, “PubChem BioAssay data set” (2004).
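These data come from cells grown in 96-well plates and exposed to compound for 48 hours at five concentrations. GI50: concentration for 50% inhibition of growth.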 Active and inactive are the calls of the source. No stated cut-off is given here; in the data, active = GI50 up to about 1.1 µM and inactive = higher.

Assays:
Test in all cases: growth of human tumour cells (NCI), 48 h
786-0 = tested on: 786-0
A498 = tested on: A498
A549 = tested on: A549
ACHN = tested on: ACHN
CAKI-1 = tested on: CAKI-1
CCRF-CEM = tested on: CCRF-CEM
COLO 205 = tested on: COLO 205
DU-145 = tested on: DU-145
EKVX = tested on: EKVX
HCC 2998 = tested on: HCC 2998
HCT-116 = tested on: HCT-116
HCT-15 = tested on: HCT-15
HL-60 = tested on: HL-60
HOP-62 = tested on: HOP-62
HOP-92 = tested on: HOP-92
HT-29 = tested on: HT-29
Hs-578T = tested on: Hs-578T
IGROV-1 = tested on: IGROV-1
K562 = tested on: K562
KM12 = tested on: KM12
LOX IMVI = tested on: LOX IMVI
M14 = tested on: M14
MCF7 = tested on: MCF7
MDA-MB-435 = tested on: MDA-MB-435
MDA-N = tested on: MDA-N
MOLT-4 = tested on: MOLT-4
Malme-3M = tested on: Malme-3M
NCI-H226 = tested on: NCI-H226
NCI-H23 = tested on: NCI-H23
NCI-H460 = tested on: NCI-H460
NCI-H522 = tested on: NCI-H522
NCI/ADR-RES = tested on: NCI/ADR-RES
OVCAR-3 = tested on: OVCAR-3
OVCAR-4 = tested on: OVCAR-4
OVCAR-5 = tested on: OVCAR-5
OVCAR-8 = tested on: OVCAR-8
PC-3 = tested on: PC-3
RPMI-8226 = tested on: RPMI-8226
RXF 393 = tested on: RXF 393
SF-268 = tested on: SF-268
SF-295 = tested on: SF-295
SF-539 = tested on: SF-539
SK-MEL-28 = tested on: SK-MEL-28
SK-MEL-2 = tested on: SK-MEL-2
SK-MEL-5 = tested on: SK-MEL-5
SK-OV-3 = tested on: SK-OV-3
SN12C = tested on: SN12C
SNB-19 = tested on: SNB-19
SNB-75 = tested on: SNB-75
SR = tested on: SR
SW-620 = tested on: SW-620
T47D = tested on: T47D
TK-10 = tested on: TK-10
U-251 = tested on: U-251
UACC-257 = tested on: UACC-257
UACC-62 = tested on: UACC-62
UO-31 = tested on: UO-31
MDA-MB-231 = tested on: MDA-MB-231

For `Cc1nc2c(C)ccc([N+](=O)[O-])c2c(NCCCN(C)C)c1C`, the GI50 (786-0) was > 90.8 µM (inactive), the GI50 (A498) was > 22.3 µM (inactive) and the GI50 (A549) was > 47.1 µM (inactive). The GI50 (ACHN) was > 100 µM (inactive), the GI50 (CAKI-1) was 66.4 µM (inactive) and the GI50 (CCRF-CEM) was 51.6 µM (inactive). For the same molecule, the GI50 (COLO 205) was 23.9 µM (inactive), the GI50 (DU-145) was > 100 µM (inactive) and the GI50 (EKVX) was > 59.7 µM (inactive). The GI50 (HCC 2998) was 27.4 µM (inactive), the GI50 (HCT-116) was 74.6 µM (inactive) and the GI50 (HCT-15) was over 39.4 µM. For the same molecule, the GI50 (HL-60) was 24.9 µM (inactive), the GI50 (HOP-62) was > 43.9 µM (inactive) and the GI50 (HOP-92) was > 100 µM (inactive). The GI50 (HT-29) was 24.7 µM (inactive), the GI50 (Hs-578T) was 63 µM (inactive) and the GI50 (IGROV-1) was > 100 µM (inactive). For the same molecule, the GI50 (K562) was 32.3 µM (inactive), the GI50 (KM12) was > 100 µM (inactive) and the GI50 (LOX IMVI) was 44.3 µM (inactive). For the same molecule, the GI50 (M14) was 19.5 µM (inactive), the GI50 (MCF7) was 46.5 µM (inactive) and the GI50 (MDA-MB-435) was 39.2 µM (inactive). The GI50 (MDA-N) was 33.1 µM (inactive), the GI50 (MOLT-4) was 28.3 µM (inactive) and the GI50 (Malme-3M) was 29 µM (inactive). For the same molecule, the GI50 (NCI-H226) was 67.1 µM (inactive), the GI50 (NCI-H23) was > 75.9 µM (inactive) and the GI50 (NCI-H460) was 57 µM (inactive). The GI50 (NCI-H522) was 26.9 µM (inactive), the GI50 (NCI/ADR-RES) was > 100 µM (inactive) and the GI50 (OVCAR-3) was 47.9 µM (inactive). For the same molecule, the GI50 (OVCAR-4) was > 100 µM (inactive), the GI50 (OVCAR-5) was > 72.1 µM (inactive) and the GI50 (OVCAR-8) was > 46.6 µM (inactive). For the same molecule, the GI50 (PC-3) was 11.7 µM (inactive), the GI50 (RPMI-8226) was 52.6 µM (inactive) and the GI50 (RXF 393) was 58.7 µM (inactive). The GI50 (SF-268) was > 100 µM (inactive), the GI50 (SF-295) was 38.4 µM (inactive) and the GI50 (SF-539) was > 76.9 µM (inactive). The GI50 (SK-MEL-28) was 27.1 µM (inactive), the GI50 (SK-MEL-2) was > 44.6 µM (inactive) and the GI50 (SK-MEL-5) was 14.2 µM (inactive). The GI50 (SK-OV-3) was > 100 µM (inactive), the GI50 (SN12C) was > 62.8 µM (inactive) and the GI50 (SNB-19) was > 100 µM (inactive). The GI50 (SNB-75) was > 65.3 µM (inactive), the GI50 (SR) was 38.3 µM (inactive) and the GI50 (SW-620) was > 38.5 µM (inactive). For the same molecule, the GI50 (T47D) was > 100 µM (inactive), the GI50 (TK-10) was > 41.6 µM (inactive) and the GI50 (U-251) was > 57.8 µM (inactive). For the same molecule, the GI50 (UACC-257) was 23.3 µM (inactive), the GI50 (UACC-62) was 37.2 µM (inactive) and the GI50 (UO-31) was > 100 µM (inactive).
For `COc1c(C(=O)NCCN(CCNC(=O)c2cccc(-c3cccc(C(=O)N(C)C)c3OC)c2OC)CCNC(=O)c2cccc(-c3cccc(C(=O)N(C)C)c3OC)c2OC)cccc1-c1cccc(C(=O)N(C)C)c1OC`, the GI50 (786-0) was 57.3 µM (inactive), the GI50 (A549) was > 100 µM (inactive) and the GI50 (ACHN) was > 100 µM (inactive). The GI50 (CAKI-1) was > 100 µM (inactive), the GI50 (CCRF-CEM) was 31.3 µM (inactive) and the GI50 (COLO 205) was 22.1 µM (inactive). The GI50 (DU-145) was 32.7 µM (inactive), the GI50 (EKVX) was 47.6 µM (inactive) and the GI50 (HCC 2998) was 17.2 µM (inactive). The GI50 (HCT-116) was 20 µM (inactive), the GI50 (HCT-15) was over 100 µM and the GI50 (HL-60) was 39.4 µM (inactive). The GI50 (HOP-62) was 97.7 µM (inactive), the GI50 (HOP-92) was 14.4 µM (inactive) and the GI50 (HT-29) was 33.1 µM (inactive). The GI50 (Hs-578T) was 32.4 µM (inactive), the GI50 (IGROV-1) was 36.1 µM (inactive) and the GI50 (K562) was 23.8 µM (inactive). The GI50 (KM12) was 17.3 µM (inactive), the GI50 (LOX IMVI) was 18.1 µM (inactive) and the GI50 (M14) was > 100 µM (inactive). The GI50 (MCF7) was 18.8 µM (inactive), the GI50 (MDA-MB-231) was 32.4 µM (inactive) and the GI50 (MDA-MB-435) was 20.9 µM (inactive). For the same molecule, the GI50 (MDA-N) was 17.8 µM (inactive), the GI50 (MOLT-4) was 24.7 µM (inactive) and the GI50 (Malme-3M) was 18.7 µM (inactive). For the same molecule, the GI50 (NCI-H226) was 17.8 µM (inactive), the GI50 (NCI-H23) was 43.2 µM (inactive) and the GI50 (NCI-H460) was 94.4 µM (inactive). The GI50 (NCI-H522) was 21.6 µM (inactive), the GI50 (NCI/ADR-RES) was > 100 µM (inactive) and the GI50 (OVCAR-3) was 16.1 µM (inactive). For the same molecule, the GI50 (OVCAR-4) was 28.3 µM (inactive), the GI50 (OVCAR-5) was 34.2 µM (inactive) and the GI50 (OVCAR-8) was > 100 µM (inactive). For the same molecule, the GI50 (PC-3) was 38.4 µM (inactive), the GI50 (RPMI-8226) was 25.9 µM (inactive) and the GI50 (RXF 393) was 26.5 µM (inactive). The GI50 (SF-268) was 15.3 µM (inactive), the GI50 (SF-295) was > 100 µM (inactive) and the GI50 (SF-539) was 18.1 µM (inactive). The GI50 (SK-MEL-28) was 19.5 µM (inactive), the GI50 (SK-MEL-5) was 30.5 µM (inactive) and the GI50 (SK-OV-3) was 48.1 µM (inactive). The GI50 (SN12C) was 24.4 µM (inactive), the GI50 (SNB-19) was 56.5 µM (inactive) and the GI50 (SNB-75) was 28.7 µM (inactive). The GI50 (SR) was 26.6 µM (inactive), the GI50 (SW-620) was 38.1 µM (inactive) and the GI50 (T47D) was 15.1 µM (inactive). The GI50 (U-251) was 34 µM (inactive), the GI50 (UACC-257) was 29 µM (inactive) and the GI50 (UACC-62) was 31.6 µM (inactive). For the same molecule, the GI50 (UO-31) was > 100 µM (inactive).
For `CN(Cc1cnc2nc(N)nc(N)c2n1)c1ccc(C(=O)NC(CCC(=O)NCC(P(=O)(O)O)P(=O)(O)O)C(=O)O)cc1` (stereo not given), the GI50 (786-0) was 81.1 µM (inactive), the GI50 (A549) was 4.99 µM (inactive) and the GI50 (ACHN) was 3.57 µM (inactive). The GI50 (COLO 205) was > 100 µM (inactive), the GI50 (DU-145) was 7.16 µM (inactive) and the GI50 (EKVX) was > 100 µM (inactive). The GI50 (HCT-116) was 0.815 µM (active), the GI50 (HCT-15) was 5.94 µM and the GI50 (HOP-62) was 5.11 µM (inactive). The GI50 (HOP-92) was < 0.01 µM (active), the GI50 (HT-29) was 5.27 µM (inactive) and the GI50 (Hs-578T) was 37.1 µM (inactive). The GI50 (IGROV-1) was 9.04 µM (inactive), the GI50 (LOX IMVI) was 2.52 µM (inactive) and the GI50 (M14) was 6.01 µM (inactive). For the same molecule, the GI50 (MDA-MB-231) was > 100 µM (inactive), the GI50 (MDA-N) was 4.97 µM (inactive) and the GI50 (MOLT-4) was 3.18 µM (inactive). For the same molecule, the GI50 (Malme-3M) was > 100 µM (inactive), the GI50 (NCI-H460) was 4.4 µM (inactive) and the GI50 (NCI-H522) was 20.2 µM (inactive). The GI50 (NCI/ADR-RES) was 35.5 µM (inactive), the GI50 (OVCAR-3) was 23 µM (inactive) and the GI50 (OVCAR-4) was 1.64 µM (inactive). For the same molecule, the GI50 (OVCAR-8) was 7.6 µM (inactive), the GI50 (PC-3) was 0.436 µM (active) and the GI50 (SF-268) was 6.11 µM (inactive). For the same molecule, the GI50 (SF-295) was 0.706 µM (active), the GI50 (SK-MEL-2) was > 100 µM (inactive) and the GI50 (SK-MEL-5) was 13.3 µM (inactive). The GI50 (SK-OV-3) was 15.7 µM (inactive), the GI50 (SN12C) was 7.21 µM (inactive) and the GI50 (SNB-75) was 57.3 µM (inactive). The GI50 (SR) was < 0.01 µM (active), the GI50 (SW-620) was 4.7 µM (inactive) and the GI50 (T47D) was 40 µM (inactive). The GI50 (UACC-257) was 12.6 µM (inactive) and the GI50 (UACC-62) was 4.41 µM (inactive).
